{
  "source": "ChEMBL document CHEMBL1201862",
  "about": "“PubChem BioAssay data set” (2004)",
  "key": {"[1]": {"assay": "Luminescence Cell-Based Dose Retest to Confirm Inhibitors of Cancer Stem Cells. [Related pubchem assays (depositor defined):AID2717, AID2721]", "assay_type": "functional", "conditions": "Homo sapiens"}, "[2]": {"assay": "Vero cell cytotoxicity, cytotoxicity control for M. tuberculosis inhibitor project, purified and synthesized samples, set 3 (AID 504684)", "assay_type": "functional", "conditions": "[…]"}, "[3]": {"assay": "A Cell Based Secondary Assay to Explore Cytotoxicity in HepG2 Cells of Compounds that Modulate Mycobacterium tuberculosis in Media Containing Glycerol versus Media without Glycerol (2).", "assay_type": "functional"}, "[4]": {"assay": "A Cell Based Secondary Assay to Explore Cytotoxicity in THP-1 Cells of Compounds that Modulate Mycobacterium tuberculosis in Media Containing Glycerol versus Media without Glycerol (2).", "assay_type": "functional"}, "INS1 [5]": {"system": "INS1", "assay": "inhibitors of cytokine-induced nitrite release, dose response, cell-based, Griess absorbance, INS-1E, dry powder, set 2 (AID 488868)", "assay_type": "functional", "conditions": "Rattus norvegicus"}, "INS1 [6]": {"system": "INS1", "assay": "protection from cytokine-induced mitochondrial depolarization, dose response, cell-based, INS-1E, JC-1 fluorescence ratio, dry powder (AID 488931)", "assay_type": "functional", "conditions": "Rattus norvegicus"}, "INS1 [7]": {"system": "INS1", "assay": "caspase-3/7 inhibition in cytokine-treated INS-1E, dose response, beta-cell apoptosis inhibitor project, cell-based, caspase luminescence, dry powder (AID 488848)", "assay_type": "functional", "conditions": "Rattus norvegicus"}, "INS1 [8]": {"system": "INS1", "assay": "protection of INS-1E cells from cytokine death, dose response, ATP luminescence, dry powder (AID 488844)", "assay_type": "functional, cell-based", "conditions": "Rattus norvegicus"}, "[9]": {"target": "Cyclin-dependent kinase 19 (Homo sapiens, UniProt Q9BWU1)", "assay": "Navigating the Kinome. Panel member name: CDC2L6", "assay_type": "functional"}, "[10]": {"target": "Vascular endothelial growth factor receptor 2 (Homo sapiens, UniProt P35968)", "sequence (P35968 whole entry)": "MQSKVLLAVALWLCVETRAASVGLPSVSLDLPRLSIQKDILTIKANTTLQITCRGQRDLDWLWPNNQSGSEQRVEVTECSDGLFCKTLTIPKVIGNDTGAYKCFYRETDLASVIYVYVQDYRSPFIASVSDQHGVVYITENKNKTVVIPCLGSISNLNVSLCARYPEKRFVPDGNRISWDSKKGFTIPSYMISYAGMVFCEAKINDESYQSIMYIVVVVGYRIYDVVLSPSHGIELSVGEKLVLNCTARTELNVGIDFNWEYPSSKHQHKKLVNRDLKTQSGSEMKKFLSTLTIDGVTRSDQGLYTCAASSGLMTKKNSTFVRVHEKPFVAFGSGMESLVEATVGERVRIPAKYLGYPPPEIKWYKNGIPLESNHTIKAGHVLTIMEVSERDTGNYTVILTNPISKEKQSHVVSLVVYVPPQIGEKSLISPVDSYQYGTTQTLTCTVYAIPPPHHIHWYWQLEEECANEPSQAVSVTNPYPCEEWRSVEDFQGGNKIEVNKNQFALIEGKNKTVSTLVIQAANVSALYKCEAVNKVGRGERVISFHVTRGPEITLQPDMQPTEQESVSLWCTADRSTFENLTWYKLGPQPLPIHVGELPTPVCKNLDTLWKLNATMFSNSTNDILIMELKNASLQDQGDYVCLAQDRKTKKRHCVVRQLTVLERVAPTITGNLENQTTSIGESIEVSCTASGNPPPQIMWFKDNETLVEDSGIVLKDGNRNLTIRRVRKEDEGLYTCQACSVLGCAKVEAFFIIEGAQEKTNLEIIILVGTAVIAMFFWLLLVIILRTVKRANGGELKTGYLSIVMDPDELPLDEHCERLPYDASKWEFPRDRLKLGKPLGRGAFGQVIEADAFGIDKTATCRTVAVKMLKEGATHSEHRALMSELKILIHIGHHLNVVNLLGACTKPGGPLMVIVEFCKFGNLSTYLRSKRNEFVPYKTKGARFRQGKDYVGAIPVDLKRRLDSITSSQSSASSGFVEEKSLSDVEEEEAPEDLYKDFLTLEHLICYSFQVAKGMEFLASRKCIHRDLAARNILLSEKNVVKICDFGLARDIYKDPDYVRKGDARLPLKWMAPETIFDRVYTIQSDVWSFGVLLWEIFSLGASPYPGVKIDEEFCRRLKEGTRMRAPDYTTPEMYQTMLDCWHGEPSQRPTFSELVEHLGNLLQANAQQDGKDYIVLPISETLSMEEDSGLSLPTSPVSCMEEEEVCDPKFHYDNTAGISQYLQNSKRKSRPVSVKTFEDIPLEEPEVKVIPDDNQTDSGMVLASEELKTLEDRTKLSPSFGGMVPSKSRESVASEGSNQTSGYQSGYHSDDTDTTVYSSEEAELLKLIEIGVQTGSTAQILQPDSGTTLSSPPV", "assay_type": "functional"}, "[11]": {"target": "Cyclin-dependent kinase 9 (Homo sapiens, UniProt P50750)", "sequence (P50750 whole entry)": "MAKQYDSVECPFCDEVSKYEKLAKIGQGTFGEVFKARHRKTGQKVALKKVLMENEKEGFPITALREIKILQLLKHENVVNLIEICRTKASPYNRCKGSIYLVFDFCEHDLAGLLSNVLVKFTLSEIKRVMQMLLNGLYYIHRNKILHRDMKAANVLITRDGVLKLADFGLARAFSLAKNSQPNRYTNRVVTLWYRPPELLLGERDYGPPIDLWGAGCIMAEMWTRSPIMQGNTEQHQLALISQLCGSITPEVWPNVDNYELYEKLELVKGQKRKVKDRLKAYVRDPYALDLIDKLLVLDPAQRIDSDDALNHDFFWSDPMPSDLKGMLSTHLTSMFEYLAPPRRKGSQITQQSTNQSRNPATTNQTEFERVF", "assay_type": "functional"}, "[12]": {"target": "Protein kinase C theta type (Homo sapiens, UniProt Q04759)", "sequence (Q04759 whole entry)": "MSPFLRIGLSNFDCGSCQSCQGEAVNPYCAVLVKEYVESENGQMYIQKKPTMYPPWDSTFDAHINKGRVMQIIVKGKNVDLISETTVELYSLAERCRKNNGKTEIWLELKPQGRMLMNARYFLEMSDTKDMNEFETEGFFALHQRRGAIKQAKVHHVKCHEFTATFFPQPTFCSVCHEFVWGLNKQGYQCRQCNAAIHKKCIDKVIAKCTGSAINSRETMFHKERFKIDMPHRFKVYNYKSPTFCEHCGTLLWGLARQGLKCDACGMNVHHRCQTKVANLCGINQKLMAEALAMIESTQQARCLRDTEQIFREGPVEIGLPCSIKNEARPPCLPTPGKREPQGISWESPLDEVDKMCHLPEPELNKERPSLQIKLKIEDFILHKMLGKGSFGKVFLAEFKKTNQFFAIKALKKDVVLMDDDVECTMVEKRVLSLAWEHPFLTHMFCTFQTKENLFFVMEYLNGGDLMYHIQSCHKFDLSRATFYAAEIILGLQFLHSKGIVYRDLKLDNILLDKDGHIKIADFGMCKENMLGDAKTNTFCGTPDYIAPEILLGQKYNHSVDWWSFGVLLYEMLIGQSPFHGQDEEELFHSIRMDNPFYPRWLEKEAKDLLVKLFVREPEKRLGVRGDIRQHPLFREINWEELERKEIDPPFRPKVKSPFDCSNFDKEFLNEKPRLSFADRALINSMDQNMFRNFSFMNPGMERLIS", "assay": "Navigating the Kinome. Panel member name: PRKCQ", "assay_type": "functional"}, "Aurora kinase A": {"target": "Aurora kinase A (Homo sapiens, UniProt O14965)", "sequence (O14965 whole entry)": "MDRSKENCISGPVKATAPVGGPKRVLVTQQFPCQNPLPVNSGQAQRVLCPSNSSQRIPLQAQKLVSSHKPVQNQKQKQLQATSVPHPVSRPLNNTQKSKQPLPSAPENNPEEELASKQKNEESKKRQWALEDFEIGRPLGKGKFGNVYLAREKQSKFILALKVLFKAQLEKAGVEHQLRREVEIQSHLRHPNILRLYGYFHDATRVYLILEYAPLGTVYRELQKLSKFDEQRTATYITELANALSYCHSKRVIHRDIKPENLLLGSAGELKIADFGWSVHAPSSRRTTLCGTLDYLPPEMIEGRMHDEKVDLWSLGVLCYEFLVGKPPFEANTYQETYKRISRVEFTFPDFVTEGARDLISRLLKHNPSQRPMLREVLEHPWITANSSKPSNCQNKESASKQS", "assay_type": "functional"}, "[13]": {"target": "cAMP-dependent protein kinase catalytic subunit alpha (Homo sapiens, UniProt P17612)", "assay_type": "functional"}, "[14]": {"target": "Dual specificity protein kinase CLK4 (Homo sapiens, UniProt Q9HAZ1)", "sequence (Q9HAZ1 whole entry)": "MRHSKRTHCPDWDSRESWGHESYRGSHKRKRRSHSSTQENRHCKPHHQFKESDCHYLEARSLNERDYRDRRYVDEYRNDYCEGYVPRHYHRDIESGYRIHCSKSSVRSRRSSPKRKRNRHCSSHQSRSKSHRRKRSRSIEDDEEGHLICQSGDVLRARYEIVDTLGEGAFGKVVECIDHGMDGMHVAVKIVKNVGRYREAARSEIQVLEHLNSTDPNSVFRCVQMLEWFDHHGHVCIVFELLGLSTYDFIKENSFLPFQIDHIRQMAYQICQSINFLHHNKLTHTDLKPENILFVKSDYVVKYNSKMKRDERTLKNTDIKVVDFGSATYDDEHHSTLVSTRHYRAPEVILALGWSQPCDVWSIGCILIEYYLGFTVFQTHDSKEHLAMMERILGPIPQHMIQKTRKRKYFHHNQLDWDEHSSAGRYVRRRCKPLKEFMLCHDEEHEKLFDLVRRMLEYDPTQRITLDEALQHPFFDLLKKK", "assay_type": "functional"}, "[15]": {"target": "Dual specificity tyrosine-phosphorylation-regulated kinase 1A (Homo sapiens, UniProt Q13627)", "assay_type": "functional"}, "[16]": {"target": "Dual specificity mitogen-activated protein kinase kinase 1 (Homo sapiens, UniProt Q02750)", "assay": "Navigating the Kinome. Panel member name: MAP2K1", "assay_type": "functional"}, "[17]": {"target": "Macrophage colony-stimulating factor 1 receptor (Homo sapiens, UniProt P07333)", "sequence (P07333 whole entry)": "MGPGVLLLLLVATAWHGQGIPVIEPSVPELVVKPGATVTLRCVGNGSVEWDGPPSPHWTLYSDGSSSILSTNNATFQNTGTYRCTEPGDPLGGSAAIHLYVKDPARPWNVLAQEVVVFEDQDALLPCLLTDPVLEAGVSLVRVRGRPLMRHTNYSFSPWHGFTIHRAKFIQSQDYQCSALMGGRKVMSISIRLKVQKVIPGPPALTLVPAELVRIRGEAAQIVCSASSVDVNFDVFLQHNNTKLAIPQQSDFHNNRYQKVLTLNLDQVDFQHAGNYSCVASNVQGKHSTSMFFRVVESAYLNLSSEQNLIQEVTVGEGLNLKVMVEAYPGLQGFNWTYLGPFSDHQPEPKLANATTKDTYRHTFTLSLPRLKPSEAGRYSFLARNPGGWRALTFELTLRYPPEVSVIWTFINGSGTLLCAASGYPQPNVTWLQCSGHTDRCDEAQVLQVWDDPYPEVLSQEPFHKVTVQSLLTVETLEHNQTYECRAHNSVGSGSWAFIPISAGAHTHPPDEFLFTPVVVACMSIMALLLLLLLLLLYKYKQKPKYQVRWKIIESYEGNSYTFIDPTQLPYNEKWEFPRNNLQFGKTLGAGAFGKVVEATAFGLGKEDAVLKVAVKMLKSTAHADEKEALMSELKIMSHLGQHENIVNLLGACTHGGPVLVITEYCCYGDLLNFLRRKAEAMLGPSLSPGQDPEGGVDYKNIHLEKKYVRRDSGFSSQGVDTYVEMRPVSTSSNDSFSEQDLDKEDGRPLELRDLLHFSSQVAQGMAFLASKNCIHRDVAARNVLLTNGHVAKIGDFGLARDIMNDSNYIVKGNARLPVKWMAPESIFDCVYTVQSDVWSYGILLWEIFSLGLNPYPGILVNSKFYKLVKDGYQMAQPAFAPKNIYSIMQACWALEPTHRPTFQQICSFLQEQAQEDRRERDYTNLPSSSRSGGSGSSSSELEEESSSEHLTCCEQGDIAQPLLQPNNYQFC", "assay_type": "functional"}, "[18]": {"target": "Dual specificity tyrosine-phosphorylation-regulated kinase 1B (Homo sapiens, UniProt Q9Y463)", "sequence (Q9Y463 whole entry)": "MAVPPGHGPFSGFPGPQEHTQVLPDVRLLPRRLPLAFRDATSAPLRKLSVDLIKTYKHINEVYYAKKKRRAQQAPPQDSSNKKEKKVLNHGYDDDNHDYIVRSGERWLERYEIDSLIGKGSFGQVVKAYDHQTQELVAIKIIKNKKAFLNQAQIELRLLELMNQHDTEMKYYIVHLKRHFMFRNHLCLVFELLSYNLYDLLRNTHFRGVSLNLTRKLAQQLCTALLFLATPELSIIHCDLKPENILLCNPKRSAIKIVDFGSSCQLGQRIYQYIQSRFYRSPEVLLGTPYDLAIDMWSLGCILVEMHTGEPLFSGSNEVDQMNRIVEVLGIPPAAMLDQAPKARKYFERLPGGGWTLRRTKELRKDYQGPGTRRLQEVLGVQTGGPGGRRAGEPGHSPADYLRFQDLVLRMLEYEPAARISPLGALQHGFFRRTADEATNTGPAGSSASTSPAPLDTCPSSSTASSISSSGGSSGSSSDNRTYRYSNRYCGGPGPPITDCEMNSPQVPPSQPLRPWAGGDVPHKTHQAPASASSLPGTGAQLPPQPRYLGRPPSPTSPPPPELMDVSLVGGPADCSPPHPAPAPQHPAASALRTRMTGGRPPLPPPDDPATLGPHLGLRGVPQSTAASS", "assay": "Navigating the Kinome. Panel member name: DYRK1B", "assay_type": "functional"}, "Caspase-3": {"target": "T1, Caspase-3 (Homo sapiens, UniProt P42574)", "T1 sequence (P42574 whole entry)": "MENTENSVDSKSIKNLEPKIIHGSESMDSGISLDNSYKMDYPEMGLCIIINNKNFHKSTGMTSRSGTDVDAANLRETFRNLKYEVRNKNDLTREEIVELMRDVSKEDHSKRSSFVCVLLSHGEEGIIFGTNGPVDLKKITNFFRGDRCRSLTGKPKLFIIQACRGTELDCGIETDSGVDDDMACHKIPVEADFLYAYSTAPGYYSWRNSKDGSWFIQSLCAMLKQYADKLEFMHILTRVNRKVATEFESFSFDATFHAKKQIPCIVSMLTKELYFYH", "assay": "caspase-3 inhibitors as off-family protease, SAR follow-up, selectivity assay for SENP protease inhibitor project, biochemical, luminescence, set 2 (AID 588599)", "assay_type": "functional"}, "[19]": {"target": "T2, Sentrin-specific protease 6 (Homo sapiens, UniProt Q9GZR1)", "T2 sequence (Q9GZR1 whole entry)": "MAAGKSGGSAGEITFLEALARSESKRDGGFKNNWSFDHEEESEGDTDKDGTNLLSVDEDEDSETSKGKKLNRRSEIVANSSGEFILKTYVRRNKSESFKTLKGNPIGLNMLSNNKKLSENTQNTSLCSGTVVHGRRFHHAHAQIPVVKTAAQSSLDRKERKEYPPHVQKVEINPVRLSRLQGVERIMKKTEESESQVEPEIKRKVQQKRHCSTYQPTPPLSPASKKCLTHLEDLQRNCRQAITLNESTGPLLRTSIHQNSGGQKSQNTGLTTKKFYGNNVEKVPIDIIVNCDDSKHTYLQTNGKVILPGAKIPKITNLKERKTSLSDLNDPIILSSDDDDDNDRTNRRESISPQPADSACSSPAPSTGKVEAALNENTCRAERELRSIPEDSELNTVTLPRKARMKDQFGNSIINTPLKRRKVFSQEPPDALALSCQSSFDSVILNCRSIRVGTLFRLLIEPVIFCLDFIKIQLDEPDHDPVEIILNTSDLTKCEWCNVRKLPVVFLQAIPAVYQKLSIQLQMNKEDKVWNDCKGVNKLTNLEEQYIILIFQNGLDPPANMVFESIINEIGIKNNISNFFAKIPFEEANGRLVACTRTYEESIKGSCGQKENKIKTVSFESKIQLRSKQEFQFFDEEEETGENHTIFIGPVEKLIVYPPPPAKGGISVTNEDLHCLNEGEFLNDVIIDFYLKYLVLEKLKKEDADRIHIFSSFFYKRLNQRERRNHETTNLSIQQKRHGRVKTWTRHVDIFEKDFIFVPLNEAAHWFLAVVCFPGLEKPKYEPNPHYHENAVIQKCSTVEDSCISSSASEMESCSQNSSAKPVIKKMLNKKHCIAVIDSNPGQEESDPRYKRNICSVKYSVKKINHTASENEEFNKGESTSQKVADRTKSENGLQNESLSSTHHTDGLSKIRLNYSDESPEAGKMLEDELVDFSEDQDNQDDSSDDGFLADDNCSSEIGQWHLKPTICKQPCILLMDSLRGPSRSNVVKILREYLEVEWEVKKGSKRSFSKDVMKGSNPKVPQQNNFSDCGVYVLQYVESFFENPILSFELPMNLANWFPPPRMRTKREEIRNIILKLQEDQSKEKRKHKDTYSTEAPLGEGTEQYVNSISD", "assay": "SENP6 protease inhibitors, SAR follow-up, biochemical, luminescence, set 2 (AID 588598)", "assay_type": "functional"}, "[20]": {"target": "T3, Sentrin-specific protease 7 (Homo sapiens, UniProt Q9BQF6)", "T3 sequence (Q9BQF6 whole entry)": "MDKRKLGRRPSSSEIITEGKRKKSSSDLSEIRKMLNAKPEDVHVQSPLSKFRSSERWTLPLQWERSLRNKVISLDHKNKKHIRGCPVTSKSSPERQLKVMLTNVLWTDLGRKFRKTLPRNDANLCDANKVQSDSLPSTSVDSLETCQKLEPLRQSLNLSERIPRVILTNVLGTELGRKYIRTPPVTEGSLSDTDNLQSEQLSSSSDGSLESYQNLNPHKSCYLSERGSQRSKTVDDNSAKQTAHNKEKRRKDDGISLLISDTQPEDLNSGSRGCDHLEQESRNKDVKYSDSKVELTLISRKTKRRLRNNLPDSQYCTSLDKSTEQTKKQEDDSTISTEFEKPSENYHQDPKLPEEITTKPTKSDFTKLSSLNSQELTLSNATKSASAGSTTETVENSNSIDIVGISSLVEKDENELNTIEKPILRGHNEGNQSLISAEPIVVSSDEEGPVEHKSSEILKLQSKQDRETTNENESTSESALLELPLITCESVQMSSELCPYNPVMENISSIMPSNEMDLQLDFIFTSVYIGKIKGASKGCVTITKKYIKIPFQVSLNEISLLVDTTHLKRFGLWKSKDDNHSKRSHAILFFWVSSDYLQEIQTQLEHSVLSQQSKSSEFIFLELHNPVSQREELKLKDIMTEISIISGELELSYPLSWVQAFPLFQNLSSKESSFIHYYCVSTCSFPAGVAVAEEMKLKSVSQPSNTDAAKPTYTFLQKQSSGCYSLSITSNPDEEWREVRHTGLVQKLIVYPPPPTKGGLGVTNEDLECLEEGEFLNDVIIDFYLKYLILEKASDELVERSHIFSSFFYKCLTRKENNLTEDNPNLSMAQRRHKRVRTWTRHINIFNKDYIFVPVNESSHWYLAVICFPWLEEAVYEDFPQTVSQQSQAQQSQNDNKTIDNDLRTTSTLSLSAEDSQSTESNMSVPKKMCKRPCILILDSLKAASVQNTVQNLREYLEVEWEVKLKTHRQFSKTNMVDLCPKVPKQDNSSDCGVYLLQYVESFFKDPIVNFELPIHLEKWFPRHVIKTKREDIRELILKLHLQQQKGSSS", "assay": "SENP7 protease inhibitors, SAR follow-up, biochemical, luminescence, set 2 (AID 588600)", "assay_type": "functional"}, "[21]": {"target": "T4, Sentrin-specific protease 8 (Homo sapiens, UniProt Q96LD8)", "T4 sequence (Q96LD8 whole entry)": "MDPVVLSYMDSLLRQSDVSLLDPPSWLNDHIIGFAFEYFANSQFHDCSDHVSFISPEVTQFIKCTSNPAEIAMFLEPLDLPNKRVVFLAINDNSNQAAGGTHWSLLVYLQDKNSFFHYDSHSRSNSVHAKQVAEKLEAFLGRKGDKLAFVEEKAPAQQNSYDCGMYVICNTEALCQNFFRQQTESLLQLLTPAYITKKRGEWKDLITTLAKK", "assay": "SENP8 protease inhibitors, SAR follow-up, biochemical, luminescence, set 2 (AID 588601)", "assay_type": "functional"}, "Candida albicans [22]": {"system": "Candida albicans", "assay": "growth inhibition of azole-resistant C. albicans, dose response, CaCi-8 strain, Alamar Blue, dry powder, set 3 (AID 488905)", "assay_type": "functional, organism-based"}, "Candida albicans [23]": {"system": "Candida albicans", "assay": "reversal of fluconazole resistance in C. albicans, dose response, CaCi-2 strain, Alamar Blue, dry powder, set 3 (AID 488907)", "assay_type": "functional, organism-based"}},
  "note": "The source made the active and inactive calls.",
  "data": [
    {"smiles": "S=c1[nH]cnc2nc[nH]c12", "note": "[MERCAPTOPURINE]", "values": [
      {"measurement": "AC50", "setting": "[1]", "result": "0.561 µM (active)"},
      {"measurement": "CC50", "setting": "[2]", "result": "76.5 µM (active)"},
      {"measurement": "CC50", "setting": "[3]", "result": "5.55 µM (active)"},
      {"measurement": "CC50", "setting": "[4]", "result": "30.4 µM (active)"}
    ]},
    {"smiles": "Cc1ccc(S(=O)(=O)N(C)C[C@@H]2Oc3c(NC(=O)Nc4ccc(F)cc4)cccc3C(=O)N([C@@H](C)CO)C[C@H]2C)cc1", "values": [
      {"measurement": "AC50", "setting": "INS1 [5]", "result": "41 µM (active)"},
      {"measurement": "AC50", "setting": "INS1 [6]", "result": "83.3 µM (active)"},
      {"measurement": "AC50", "setting": "INS1 [7]", "result": "27.4 µM (active)"},
      {"measurement": "AC50", "setting": "INS1 [8]", "result": "28.7 µM (active)"}
    ]},
    {"smiles": "NC(=O)c1cnn2c(-c3ccccc3)ccnc12", "values": [
      {"measurement": "Ki", "setting": "[9]", "result": "> 100 µM (inactive)"},
      {"measurement": "Ki", "setting": "[10]", "result": "> 100 µM (inactive)"},
      {"measurement": "Ki", "setting": "[11]", "result": "> 63.1 µM (inactive)"},
      {"measurement": "Ki", "setting": "[12]", "result": "> 100 µM (inactive)"},
      {"measurement": "Ki", "setting": "Aurora kinase A", "result": "> 63.1 µM (inactive)"},
      {"measurement": "Ki", "setting": "[13]", "result": "> 50.1 µM (inactive)"},
      {"measurement": "Ki", "setting": "[14]", "result": "3.98 µM (active)"},
      {"measurement": "Ki", "setting": "[15]", "result": "> 79.4 µM (inactive)"},
      {"measurement": "Ki", "setting": "[16]", "result": "50.1 µM (active)"},
      {"measurement": "Ki", "setting": "[17]", "result": "> 100 µM (inactive)"},
      {"measurement": "Ki", "setting": "[18]", "result": "15.8 µM (active)"}
    ]},
    {"smiles": "COc1ccc(Br)c(C(=O)Nc2nc3ccc(C)cc3s2)c1", "values": [
      {"measurement": "IC50", "setting": "Caspase-3", "result": "3.57 µM (active)"},
      {"measurement": "IC50", "setting": "[19]", "result": "2.02 µM (active)"},
      {"measurement": "IC50", "setting": "[20]", "result": "2.13 µM (active)"},
      {"measurement": "IC50", "setting": "[21]", "result": "1.78 µM (active)"}
    ]},
    {"smiles": "O=C(c1cccc(Cl)c1)N1CCN(c2ccccn2)CC1", "values": [
      {"measurement": "AC50", "setting": "Candida albicans [22]", "result": "< 0.195 µM (active)"},
      {"measurement": "AC50", "setting": "Candida albicans [23]", "result": "0.073 µM (active)"}
    ]}
  ]
}
